Values belong to the compound of their own block, whether it stands above or below them.
What was measured:
[1] = tested on: Ba/F3 KIF5B-RET^G810R subcutaneous tumour; test: In vivo efficacy in BALB/c Nude mouse model with Ba/F3 KIF5B-RET^G810R subcutaneous tumour; conditions: 30 mg/kg, PO, BID × 12; for VP-1 (mm^3, mean ± SEM): tumour volume one day before administration: baseline of the group
RET-G810R enzyme = RET-G810R enzyme (Homo sapiens (Human), UniProt P07949, G810R); test: RET inhibition experiment, HTRF KinEASE-TK kit, RET-G810R; type: biochemical; conditions: for IC50: Table 2
RET-G810S enzyme = RET-G810S enzyme (Homo sapiens (Human), UniProt P07949, G810S); test: RET inhibition experiment, HTRF KinEASE-TK kit, RET-G810S; type: biochemical; conditions: for Inhibition rate on RET-G810S (%) / inhibition at 0.3 µM: compound concentration 300 nM; for inhibition at 0.3 µM: read-out: Inhibition rate on RET-G810S (%); for IC50: Table 4
RET-G810C enzyme = RET-G810C enzyme (Homo sapiens (Human), UniProt P07949, G810C); test: RET inhibition experiment, HTRF KinEASE-TK kit, RET-G810C; type: biochemical; conditions: for IC50: Table 6
RET-G810C enzyme, sequence (P07949 29-1114 G810C): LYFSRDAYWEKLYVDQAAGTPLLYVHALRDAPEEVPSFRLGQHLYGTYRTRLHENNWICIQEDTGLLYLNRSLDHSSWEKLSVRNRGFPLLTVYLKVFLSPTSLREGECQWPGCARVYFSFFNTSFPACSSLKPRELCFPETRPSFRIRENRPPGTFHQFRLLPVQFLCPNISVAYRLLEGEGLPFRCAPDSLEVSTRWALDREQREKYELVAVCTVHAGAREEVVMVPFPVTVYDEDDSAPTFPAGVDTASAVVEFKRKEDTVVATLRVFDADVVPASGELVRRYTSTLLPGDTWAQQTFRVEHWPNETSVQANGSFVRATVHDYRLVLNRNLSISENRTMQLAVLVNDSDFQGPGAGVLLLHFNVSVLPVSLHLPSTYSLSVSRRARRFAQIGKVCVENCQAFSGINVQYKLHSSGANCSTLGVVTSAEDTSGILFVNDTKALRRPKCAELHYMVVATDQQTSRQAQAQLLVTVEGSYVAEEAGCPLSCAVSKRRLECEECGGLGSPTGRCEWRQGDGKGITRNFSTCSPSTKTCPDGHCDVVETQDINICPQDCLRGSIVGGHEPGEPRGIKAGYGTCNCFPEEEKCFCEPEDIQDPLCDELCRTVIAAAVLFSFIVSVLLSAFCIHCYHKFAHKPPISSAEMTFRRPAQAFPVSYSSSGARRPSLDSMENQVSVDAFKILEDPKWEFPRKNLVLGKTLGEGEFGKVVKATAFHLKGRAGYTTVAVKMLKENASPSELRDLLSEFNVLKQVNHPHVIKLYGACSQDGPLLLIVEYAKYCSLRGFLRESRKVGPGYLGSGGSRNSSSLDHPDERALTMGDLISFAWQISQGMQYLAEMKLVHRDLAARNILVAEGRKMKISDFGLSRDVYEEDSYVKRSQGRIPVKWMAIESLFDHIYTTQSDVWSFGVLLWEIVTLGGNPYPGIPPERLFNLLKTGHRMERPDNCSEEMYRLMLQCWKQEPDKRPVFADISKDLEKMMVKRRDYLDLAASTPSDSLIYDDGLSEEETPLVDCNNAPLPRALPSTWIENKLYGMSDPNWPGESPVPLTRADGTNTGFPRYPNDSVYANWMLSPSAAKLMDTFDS

RET-G810R enzyme, sequence (P07949 29-1114 G810R): as the sequence (P07949 29-1114 G810C) above, with C782R counted along it
RET-G810S enzyme, sequence (P07949 29-1114 G810S): as the sequence (P07949 29-1114 G810C) above, with C782S counted along it

Inhibition rate on RET-G810S (%) (RET-G810S enzyme): 83.73 ± 3.16%
Compound: Cc1cc(Nc2cc(C)[nH]n2)nc(-c2ccc(N3CC4CC(C3)N4Cc3ccc(-n4ccc(F)n4)nc3)nc2)n1 [Compound 8]

Inhibition rate on RET-G810S (%) (RET-G810S enzyme): 88.46 ± 2.23% | Inhibition rate on RET-G810R (%) (RET-G810R enzyme; compound concentration 300 nM): 72.78 ± 1.58%
Compound: Cc1cc(Nc2cc(C)[nH]n2)nc(-c2ccc(N3CC4CC(C3)N4Cc3ccc(-n4cnc(F)c4)nc3)nc2)n1 [Compound 10]

Inhibition rate on RET-G810S (%) (RET-G810S enzyme): 90.87 ± 1.13%
Compound: Cc1cc(Nc2cc(C)[nH]n2)nc(-c2ccc(N3CC4CC(C3)N4Cc3ccc(-n4nccc4C4CC4)nc3)nc2)n1 [Compound 11]

Inhibition rate on RET-G810S (%) (RET-G810S enzyme): 99.19 ± 0.55% | Inhibition rate on RET-G810C (%) (RET-G810C enzyme; compound concentration 300 nM): 69.10 ± 5.56% | Inhibition rate on RET-G810R (%) (RET-G810R enzyme; compound concentration 300 nM): 69.44 ± 0.31%
Compound: Cc1cc(Nc2cc(C)[nH]n2)nc(-c2ccc(N3CC4CC(C3)N4Cc3ccc(-n4cc(C)c(C)n4)nc3)nc2)n1 [Compound 12]

Inhibition rate on RET-G810S (%) (RET-G810S enzyme): 97.21 ± 1.01%
Compound: Cc1cc(Nc2cc(C)[nH]n2)nc(-c2ccc(N3CC4CC(C3)N4Cc3ccc(-n4cc(F)cn4)nc3)nc2)c1 [Compound 13]

Inhibition rate on RET-G810S (%) (RET-G810S enzyme): 85.27 ± 0.37%
Compound: Cc1cc(Nc2cc(C)[nH]n2)nc(-c2ccc(N3CC4CC(C3)N4Cc3ccc(-c4ccc(C)o4)nc3)nc2)n1 [Compound 16]

Inhibition rate on RET-G810S (%) (RET-G810S enzyme): 90.64 ± 0.68%
Compound: Cc1cc(Nc2cc(C)[nH]n2)nc(-c2ccc(N3CC4CC(C3)N4Cc3ccc(-n4ccc(F)n4)cc3)nc2)n1 [Compound 17]

Inhibition rate on RET-G810S (%) (RET-G810S enzyme): 80.98 ± 7.32% | Inhibition rate on RET-G810C (%) (RET-G810C enzyme; compound concentration 300 nM): 82.80 ± 3.66%
Compound: Cc1cc(Nc2cc(C)[nH]n2)nc(-c2ccc(N3CC4CC(C3)N4Cc3ccc(-n4nccc4OC4CC4)nc3)nc2)n1 [Compound 19]

Inhibition rate on RET-G810S (%) (RET-G810S enzyme): 96.67 ± 0.03% | Inhibition rate on RET-G810C (%) (RET-G810C enzyme; compound concentration 300 nM): 86.86 ± 1.73%
Compound: Cc1cc(Nc2cc(C)[nH]n2)nc(-c2ccc(N3CC4CC(C3)N4Cc3ccc(-n4ncc(F)c4C)nc3)nc2)n1 [Compound 20]

Inhibition rate on RET-G810C (%) (RET-G810C enzyme; compound concentration 300 nM): 84.26 ± 6.82%
Compound: Cc1cc(Nc2cc(C)[nH]n2)nc(-c2ccc(N3CC4CC(C3)N4Cc3ccc(-n4ncc(F)c4C4CC4)nc3)nc2)n1 [Compound 22]

Inhibition rate on RET-G810S (%) (RET-G810S enzyme): 97.26 ± 0.72%
Compound: Cc1cc(Nc2cc(C)[nH]n2)nc(-c2ccc(N3CC4CC(C3)N4Cc3ccc(-c4ccn[nH]4)nc3)nc2)n1 [Compound 25]

Inhibition rate on RET-G810S (%) (RET-G810S enzyme): 97.83 ± 0.32%
Compound: Cc1cc(Nc2cc(C)[nH]n2)nc(-c2ccc(N3CC4CC(C3)N4Cc3ccc(-c4cscn4)nc3)nc2)n1 [Compound 26]

Further lines, the compound ahead of its results:

Compound: CO[C@]1(C(=O)N[C@@H](C)c2ccc(-n3cc(F)cn3)nc2)CC[C@H](c2nc(C)cc(Nc3cc(C)[nH]n3)n2)CC1 [BLU-667, Pralsetinib]
TGI (%) tumour growth inhibition rate [1]: 29.78% | VP12 (mm^3, mean ± SEM): tumour volume on Day 12 of administration [1]: 552.89 ± 29.7 mm^3 | VP-1 (mm^3, mean ± SEM): tumour volume one day before administration [1]: 101.82 ± 5.93 mm^3

Compound: Cc1ccc(CN2C3CC2CN(c2ccc(-c4nc(C)cc(Nc5cc(C)[nH]n5)n4)cn2)C3)cc1 [Compound 2]
Inhibition rate on RET-G810R (%) (RET-G810R enzyme; compound concentration 300 nM): 70.41 ± 4.57%

Compound: Cc1cc(Nc2cc(C)[nH]n2)nc(-c2ccc(N3CC4CC(C3)N4Cc3ccc(Cl)cn3)nc2)n1 [Compound 3]
Inhibition rate on RET-G810R (%) (RET-G810R enzyme; compound concentration 300 nM): 72.49 ± 3.15%

Compound: Cc1cnn(-c2ccc(CN3C4CC3CN(c3ccc(-c5nc(C)cc(Nc6cc(C)[nH]n6)n5)cn3)C4)cn2)c1 [Compound 4]
Inhibition rate on RET-G810S (%) (RET-G810S enzyme): 98.89 ± 0.18% | Inhibition rate on RET-G810R (%) (RET-G810R enzyme; compound concentration 300 nM): 78.98 ± 0.24%

Compound: Cc1cc(Nc2cc(C)[nH]n2)nc(-c2ccc(N3CC4CC(C3)N4Cc3ccc(-n4cccn4)nc3)nc2)n1 [Compound 5]
Inhibition rate on RET-G810S (%) (RET-G810S enzyme): 97.89 ± 0.57% | IC50 (RET-G810R enzyme): 185 nM

Compound: Cc1cc(Nc2cc(C)[nH]n2)nc(-c2ccc(N3CC4CC(C3)N4Cc3ccc(-n4cccn4)cc3)nc2)n1 [Compound 6]
Inhibition rate on RET-G810S (%) (RET-G810S enzyme): 83.01 ± 1.42% | Inhibition rate on RET-G810R (%) (RET-G810R enzyme; compound concentration 300 nM): 77.16 ± 3.87%

Compound: Cc1cc(Nc2cc(C)[nH]n2)nc(-c2ccc(N3CC4CC(C3)N4Cc3ccc(-n4cc(F)cn4)cc3)nc2)n1 [Compound 7]
Inhibition rate on RET-G810S (%) (RET-G810S enzyme): 91.80 ± 0.98%

Compound: Cc1cc(Nc2cc(C)[nH]n2)nc(-c2ccc(N3CC4CC(C3)N4Cc3ccc(-n4cc(Cl)cn4)nc3)nc2)n1 [Compound 9, 2-(6-(6-((6-(4-chloro-1H-pyrazol-1-yl)pyridin-3-yl)methyl)-3,6-diazabicyclo [3.1.1]heptan-3-yl)pyridin-3-yl)-6-methyl-N-(5-methyl-1H-pyrazol-3-yl) pyrimidin-4-amine]
inhibition at 0.3 µM (RET-G810S enzyme): 97.64 ± 0.19% | inhibition at 0.3 µM (RET-G810R enzyme; compound concentration 300 nM, read-out: Inhibition rate on RET-G810R (%)): 78.6 ± 4.5%

Compound: Cc1cc(Nc2cc(C)[nH]n2)nc(-c2ccc(N3CC4CC(C3)N4Cc3ccc(-n4nccc4C4CC4)cc3)nc2)n1 [Compound 14, 2-(6-(6-(4-(5-cyclopropyl-1H-pyrazol-1-yl)benzyl)-3,6-diazabicyclo [3.1.1]heptan-3-yl)pyridin-3-yl)-6-methyl-N-(5-methyl-1H-pyrazol-3-yl) pyrimidin-4-amine]
inhibition at 0.3 µM (RET-G810S enzyme): 92.56 ± 0.08%

Compound: Cc1cc(Nc2cc(C)[nH]n2)nc(-c2ccc(N3CC4CC(C3)N4Cc3ccc(-n4ccc(C5CC5)n4)cc3)nc2)n1 [Compound 15, 2-(6-(6-(4-(3-cyclopropyl-1H-pyrazol-1-yl)benzyl)-3,6-diazabicyclo [3.1.1]heptan-3-yl)pyridin-3-yl)-6-methyl-N-(5-methyl-1H-pyrazol-3-yl) pyrimidin-4-amine]
inhibition at 0.3 µM (RET-G810S enzyme): 97.22 ± 0.39%

Compound: Cc1cc(Nc2cc(C)[nH]n2)nc(-c2ccc(N3CC4CC(C3)N4Cc3ccc(-n4cc(F)cn4)nc3)nc2)n1 [Compound 18]
IC50 (RET-G810S enzyme): 15.9 nM | IC50 (RET-G810C enzyme): 36.3 nM | IC50 (RET-G810R enzyme): 132 nM

Compound: Cc1cc(Nc2cc(C)[nH]n2)nc(-c2ccc(N3CC4CC(C3)N4Cc3ccc(-c4ccc[nH]4)nc3)nc2)n1 [Compound 21]
IC50 (RET-G810S enzyme): 6.61 nM | IC50 (RET-G810C enzyme): 173 nM

Compound: Cc1cc(Nc2cc(C)[nH]n2)nc(-c2ccc(N3CC4CC(C3)N4Cc3ccc(-n4ccc(C(C)(C)O)n4)nc3)nc2)n1 [Compound 24, 2-(1-(5-((3-(5-(4-methyl-6-((5-methyl-1H-pyrazol-3-yl)amino)pyrimidin-2-yl)pyridin-2-yl)-3,6-diazabicyclo [3.1.1]heptan-6-yl)methyl)pyridin-2-yl)-1H-pyrazol-3-yl) propan-2-ol]
IC50 (RET-G810S enzyme): 57.2 nM

Compound: Cc1cc(Nc2cc(C)[nH]n2)nc(-c2ccc(N3CC4CC(C3)N4Cc3ccc(-c4ccc(F)[nH]4)nc3)nc2)n1 [Compound 27]
IC50 (RET-G810S enzyme): 23.1 nM | Inhibition rate on RET-G810C (%) (RET-G810C enzyme; compound concentration 300 nM): 82.66 ± 2.47%

Compound: Cc1cc(Nc2cc(C)[nH]n2)nc(-c2ccc(N3CC4CC(C3)N4Cc3ccc(-n4nc(F)cc4C)nc3)nc2)n1 [Compound 28, 2-(6-(6-((6-(3-fluoro-5-methyl-1H-pyrazol-1-yl)pyridin-3-yl)methyl)-3,6-diazabicyclo [3.1.1]heptan-3-yl)pyridin-3-yl)-6-methyl-N-(5-methyl-1H-pyrazol-3-yl) pyrimidin-4-amine]
inhibition at 0.3 µM (RET-G810S enzyme): 90.8 ± 1.24%

Compound: Cc1cc(Nc2cc(C)[nH]n2)nc(-c2ccc(N3CC4CC(C3)N4Cc3ccc(-c4ccco4)nc3)nc2)n1 [Compound 29, 2-(6-(6-((6-(furan-2-yl)pyridin-3-yl)methyl)-3,6-diazabicyclo [3.1.1]heptan-3-yl)pyridin-3-yl)-6-methyl-N-(5-methyl-1H-pyrazol-3-yl) pyrimidin-4-amine]
inhibition at 0.3 µM (RET-G810S enzyme): 93.21 ± 0.91%

Compound: Cc1cc(Nc2cc(C)[nH]n2)nc(-c2ccc(N3CC4CC(C3)N4Cc3ccc(-n4cc(F)c(C(C)(C)O)n4)nc3)nc2)n1.O=C(O)/C=C/C(=O)O [Compound 30-A, Fumarate of 2-(4-fluoro-1-(5-((3-(5-(4-methyl-6-((5-methyl-1H-pyrazol-3-yl)amino)pyrimidin-2-yl)pyridin-2-yl)-3,6-diazabicyclo [3.1.1]heptan-6-yl)methyl)pyridin-2-yl)-1H-pyrazol-3-yl) propan-2-ol]
Inhibition rate on RET-G810S (%) (RET-G810S enzyme): 99.01 ± 0.15% | IC50 (RET-G810C enzyme): 125 nM

Compound: Cc1cc(Nc2cc(C)[nH]n2)nc(-c2ccc(N3CC4CC(C3)N4Cc3cnc(-n4cc(F)cn4)cn3)nc2)n1 [Compound 31, 2-(6-(6-((5-(4-fluoro-1H-pyrazol-1-yl)pyrazin-2-yl)methyl)-3,6-diazabicyclo [3.1.1]hept-3-yl)pyridin-3-yl)-6-methyl-N-(5-methyl-1H-pyrazol-3-yl) pyrimidin-4-amine]
inhibition at 0.3 µM (RET-G810S enzyme): 99.69 ± 0.14% | inhibition at 0.3 µM (RET-G810C enzyme; compound concentration 300 nM, read-out: Inhibition rate on RET-G810C (%)): 74.1 ± 1.28%

Compound: COc1ccc(CN2C3CC2CN(c2ccc(-c4cc(OCC(C)(C)O)cn5ncc(C#N)c45)cn2)C3)cn1 [LOXO-292, Selpercatinib]
TGI (%) tumour growth inhibition rate [1]: 2.69% | VP12 (mm^3, mean ± SEM): tumour volume on Day 12 of administration [1]: 725.55 ± 54.84 mm^3 | VP-1 (mm^3, mean ± SEM): tumour volume one day before administration [1]: 100.47 ± 4.52 mm^3

— patent publication US20250268897A1, “USE OF HETEROCYCLIC COMPOUND IN TREATING DISEASES RELATED TO KINASE DRUG-RESISTANT MUTATION AND METHOD THEREFOR” (Sichuan Kelun-Biotech Biopharmaceutical Co., Ltd., priority 2021, published 2025)
